Results: patent US7022524B1, “Increasing plant growth with luminol” (The Regents of the University of California, Office of …, priority 1998, dated 2006)
Each block holds one molecule with its values, some of them ahead of it.

Legend:
alfalfa seedlings = assay: Net photosynthesis measured as radioactive 14CO2 incorporation in alfalfa seedlings; format: in vivo, Medicago sativa L.
Protocol: Twenty hours after treating alfalfa roots with purified compound D, 25% to 30% increases in net photosynthesis was effected, as measured by radioactive ^14CO2 incorporation tests. Purified compound D was supplied at approximately 100 pM in solution surrounding roots of three day old alfalfa seedlings. Net photosynthesis was measured as radioactive ^14CO2 incorporation by exposing randomized treatments of all plants simultaneously for about 15 minutes to ^14CO2 in a single chamber with thorough mixing of the chamber atmosphere. Data points were means from two to four replicates, each of which contained approximately 400 seedlings.
The isotopic assay for measuring net photosynthesis with ^14CO2 is described in Sheikholeslam (1980) Botanical Gazette 141:48-52. Briefly, to measure net photosynthesis, intact seedling are placed in a clear plastic box with direct exposure to sunlight or artificial lights. Isotopically labeled ^14CO2 is generated in the plant chamber by injecting an acid solution through a rubber stopper in the wall of the box and into a beaker containing ^14C-bicarbonate. The ^14CO2 released by that chemical reaction is distributed throughout the box with a fan. After 15 minutes of photosynthesis in the presence of ^14CO2, plants are frozen in liquid nitrogen and separated into roots, stems and leaves. The amount of ^14CO2 is measured in the various plant parts with a scintillation counter after chemical digestion of the plant matter.

R. meliloti 1021 = assay: Production of compounds D and Y by bacterial cultures in supplemented medium; format: cell-based, Rhizobium meliloti; settings: culture medium supplemented at final concentration of 50 micromolar
[1] = Stability to light and heat; format: physicochemical; settings: e.g., 40° C.
alfalfa = assay: Plant growth (dry weight of shoots and roots) of alfalfa after root or seed treatment; format: in vivo, Medicago sativa L.
Protocol: In another experiment, treating alfalfa seedling roots with purified compound D at a presumed concentration of about 100 pM every 48 hours for 10 days increased the final shoot dry mass (as determined by weighing) 10% relative to untreated control plants.
Moapa 69′ alfalfa seeds for all experiments were soaked 30 min in 70% ethanol, rinsed with sterile water, treated 5 min in concentrated H2SO4, rinsed with sterile water, soaked 30 min in commercial bleach and then washed with sterile water. For respiration tests approximately 400 seeds (1 gram) were germinated on a 10×10-cm screen above a hydroponic nutrient solution, see Volpin (1998) Plant Physiol. 116:777-783. In some hydroponic experiments the nutrient solution was supplemented to contain ampicillin (125 mg/L) and rifampicin (10 mg/L). Plant growth experiments were done in sterile pots (10×10×10 cm) containing vermiculite. The pots were watered with the hydroponic nutrient solution (Volpin (1998) supra) supplemented to contain 1 mM NH4NO3 and various lumichrome treatments every second day. In all experiments, plants were grown under controlled conditions using a 12/12-hour day/night photoperiod and a 25/20° C. temperature regime with a photon flux density (400-700 nm) of 250 μmol/m^2-s.
Lumichrome effects on plant growth were tested by treating roots or seeds. Surface-sterilized seeds were soaked 2 hours in either 0 or 5 nM lumichrome. Then 50 seeds were planted in vermiculite in each pot. Plants germinating from untreated seeds received nutrient solution containing 0, 5 or 50 nM lumichrome. Plants developing from seeds soaked in 5 nM lumichrome were watered with lumichrome-free nutrient solution. Pots were covered initially with a clear, plastic wrap, which was removed after 6 days. Plants were harvested 12 days after germination, and roots and shoots were separated, dried, and weighed.

[2] = tested on: alfalfa (Medicago sativa L.) roots; assay: Root respiration (CO2 evolution / O2 uptake by gas chromatograph) of excised alfalfa roots after treating intact seedlings; format: in vivo
Protocol: Rhizobium meliloti 1021 (Rm1021) (Meade (1982) J. Bacteriol. 149:114-122) were grown to the early stationary phase in a defined minimal medium (as described in Vincent (1970) In “A Manual for the Practical Study of Root-Nodule Bacteria, Blackwell Scientific Publications, Oxford, UK). Bacteria were collected by centrifugation and washed three times with sterile water before roots were inoculated. UV irradiance for killing cells in some experiments was supplied as a 25 minute treatment with a transilluminator(model T1202, Sigma). The absence of living cells in UV-killed cultures and sterile, non-inoculated control treatments was verified by plating on tryptone yeast medium.
If respiration is to be measured, it is important that the plants be grown under sterile conditions for the respiration measurements (see, e.g., Guri, et al., U.S. Pat. No. 5,503,652, describing compositions and methods to prevent microbial contamination of plant tissue culture media). Seeds of alfalfa (Medicago sativa L. cv Moapa 69) were surface sterilized for 15 minutes in 70% ethanol, rinsed with water, and allowed to imbibe for four hours with aeration before germinating in a hydroponic system (as in Maxwell (1989) Plant Physiol. 91:842-847) containing nitrogen free nutrient solution (see DeJong (1981) Plant Physiol. 68:309-313). Each 400 mL plastic box contained one gram of seeds and produced about 400 seedlings after being maintained in a sterile manner for about three days with aeration at 25° C. under indirect sunlight supplemented with fluorescent lights. Plants used in these experiments consisted of cotyledons and roots with an occasional primary leaf.
Experiments used 5×10^7 colony-forming units (CFU) of bacteria per mL of plant nutrient solution unless otherwise noted. Bacteria were harvested from their growth medium, washed twice in sterile water, suspended in 1 mL of water and added to the plant nutrient solution of alfalfa seedlings 3 days after germination, when roots were approximately 4-cm long. Sterile water (1 mL) was added to the sterile non-inoculated controls. Plants were harvested to measure root respiration at various times, depending of the experiment. At harvest, roots were excised, blotted briefly on a paper towel, weighed, and enclosed in a 10-mL gas-tight test tube. Each replicate contained 1 gram fresh wt of roots from about 200 plants; every experiment had three or four replicates; and all experiments were repeated at least twice.
All assays were conducted for 30 minutes immediately after excision. Changes in CO2, and in some experiments O2, were measured at 45° C. with a thermistor detector on a Sigma 4 gas chromatograph equipped with a column (3.05 m×3.2 mm) containing Chromosorb 102 for CO2 and Molecular Sieve 5A for O2. Helium was used as the carrier gas at flow rates of 15 cm^3/min for O2 and 35 cm^3/min for CO2. The change in gas composition during the first 30 min after the roots were enclosed in the assay tubes (described above) was used to calculate respiration rates. Data were analyzed with standard statistical methods to determine SE or LSD0.05 values for comparisons of treatment effects by Student's t test or analysis of variance (see, e.g., Steel et al., (1960) Principles and Procedures of Statistics. McGraw-Hill, N.Y.).
Moapa 69′ alfalfa seeds for all experiments were soaked 30 min in 70% ethanol, rinsed with sterile water, treated 5 min in concentrated H2SO4, rinsed with sterile water, soaked 30 min in commercial bleach and then washed with sterile water. For respiration tests approximately 400 seeds (1 gram) were germinated on a 10×10-cm screen above a hydroponic nutrient solution, see Volpin (1998) Plant Physiol. 116:777-783. In some hydroponic experiments the nutrient solution was supplemented to contain ampicillin (125 mg/L) and rifampicin (10 mg/L). Plant growth experiments were done in sterile pots (10×10×10 cm) containing vermiculite. […]

[3] = Solubility and hydrophobicity; format: physicochemical; settings: for solubility during purification: all solvents; for solubility: purified compounds, water, methanol; for hydrophobicity: removed from aqueous solution in C18 resin
[4] = about 100 pM to seedling roots every 48 hours for 10 days

SMILES: CC(=O)c1c(O)cc(O)c(C(C)=O)c1O [diacetylphloroglucinol, 2,4-diacetyl-1,3,5-benzenetriol]
increase in net photosynthesis in plants (alfalfa seedlings; applied to roots in nanomolar concentrations): ≤ 50%
effect on the production of compound Y (R. meliloti 1021): no consistent effect

stability to light and heat [1]: degraded by light and heat
solubility during purification [3]: Solubility problems
solubility [3]: soluble in both water and methanol
hydrophobicity [3]: moderately hydrophobic
SMILES: Cc1cc2nc3[nH]c(=O)[nH]c(=O)c3nc2cc1C [lumichrome, 7,8,-dimethylalloxazine]
increase in net photosynthesis over untreated control (alfalfa seedlings; approximately 100 pM around roots of three day old seedlings, 20 hours after treating roots): 25% to 30%
time to peak of 14CO2 incorporation (alfalfa seedlings; no more than 100 pM): 5 to 10 h
increase in net photosynthesis above untreated controls (alfalfa seedlings; no more than 100 pM, 8 hour time point after treating roots): 45% to 75%
14CO2 incorporation (alfalfa seedlings; no more than 100 pM, after approximately 20 hours): about 2.0 ^14CO2 cpm×10^5 per gram cotyledon
14CO2 incorporation, peak (alfalfa seedlings; no more than 100 pM, peak after about 5 to 10 hours, negative control about 1.5): 2.5 to 2.75 ^14CO2 cpm×10^5 per gram cotyledon
increase in plant growth (alfalfa; 5 nM applied to young alfalfa roots, after 12 days, P≦0.05): 8%
change in root dry weight (alfalfa; [4]): no increase in root dry weight
increase in final shoot dry mass relative to untreated control plants (alfalfa; [4]): 10%
increase in plant growth (alfalfa; alfalfa seeds soaked in 5 nM before germination, 12 days, P≦0.01): 18%
root mass relative to control (alfalfa; lumichrome-treated plants, 12 days): numerically, but not significantly, larger
increase in shoot dry weight relative to control shoots (alfalfa; root drench 5 nM, 12 days, P≦0.05): 7%
increase in shoot dry weight relative to control shoots (alfalfa; root drench 50 nM, 12 days, P≦0.01): 12%
increase in dry matter on a whole-plant basis (alfalfa; roots exposed or seeds immersed before germination, P≦0.05): 8% to 18%
increase in shoot dry weight relative to control shoots (alfalfa; seed soaking 5 nM, 12 days, P≦0.01): 18%
increase in root respiration ([2]; 3 to 50 nM treatments of alfalfa roots, several experiments, P≦0.05): 11% to 30%
increase in root respiration ([2]; alfalfa roots treated with 3 nM, within 48 hours, P≦0.05): 21%
time for the (slower) increase in root respiration ([2]; in vivo): greater than 4 hours
increase in root respiration ([2]; intact root systems exposed 39 hours, 3 nM lumichrome or S. meliloti cells 10^7 cfu/ml, P≦0.05): 21%

SMILES: CC(=O)c1c(O)cc(O)cc1O [monoacetylphloroglucinol]
effect on the production of compound Y (R. meliloti 1021): no consistent effect

SMILES: Oc1cc(O)cc(O)c1 [phloroglucinol, reference compound]
effect on the production of compound Y (R. meliloti 1021): no consistent effect

stability to light and heat [1]: degraded by light and heat
solubility during purification [3]: only marginally better
solubility [3]: soluble in both water and methanol
hydrophobicity [3]: moderately hydrophobic
SMILES: Cc1cc2nc3c(=O)[nH]c(=O)nc-3n(C[C@H](O)[C@H](O)[C@H](O)CO)c2cc1C [riboflavin]
enhancement of net photosynthesis (alfalfa seedlings; very low (e.g., picomolar) concentrations): ≤ 7%
increase in root respiration compared with lumichrome ([2]; 200 nM riboflavin, one test): approximately the same increase in root respiration as 30 nM lumichrome
increase in root respiration ([2]; very low (e.g., picomolar) concentrations, various experiments): 11% to 31%
